Measured values reported in patent US20250120978A1, “JAK INHIBITOR WITH ERK1/2 AND/OR SHP2 INHIBITORS COMBINATION THERAPY” (Erasca, Inc., priority 2021, published 2025).

Tests used:
[1] = system: Human JAK2V617F-positive UKE-1 cells; assay: Apoptosis by Annexin V staining and flow cytometry in UKE-1 cells; type: cell-based; details: 72 hours, Annexin V staining; single drug
Experimental: The following experiment was designed to test whether the combination of Compound 2 and ruxolitinib induces apoptosis in UKE-1 cells harboring a JAK2V617F mutation. […] Cell apoptosis was determined by Annexin V staining and flow cytometry.

[2] = system: JAK2V617F knock-in mouse models; assay: Splenomegaly in Jak2V617F knock-in mouse model of MPN; type: in vivo; details: Compound 2 30 mg/kg/per day, compared with vehicle treatment
Experimental: In animal models, JAK2V617F expression typically leads to the development of MPN-like disease which results in enlargement of spleen (splenomegaly), higher cell counts, and fibrotic evolution. JAK2V617F knock-in mouse models were used to investigate the effect of the combination of Compound 2 with ruxolitinib. Animals were dosed with either Compound 2, ruxolitinib, or the combination of Compound 2 with ruxolitinib. […] Data are shown in bar graphs as mean±SEM (n=4 for vehicle; n=7 for Compound 2 I; n=4 for ruxolitinib; n=7 for combo drug treatment) in FIG. 6B. (*p<0.05; **p<0.005).

Q: With `COCOC[C@H]1C[C@H]2COc3c(Sc4cnc(N5CCC6(CC5)CO[C@@H](C)[C@H]6N)c(CO)n4)ccnc3N2C1` [Compound 2, (3-((3S,4S)-4-amino-3-methyl-2-oxa-8-azaspiro[4.5]decan-8-yl)-6-(((6aS,8S)-8-((methoxymethoxy)methyl)-6a,7,8,9-tetrahydro-6H-pyrido[3,2-b]pyrrolo[1,2-d][1,4]oxazin-4-yl)thio)pyrazin-2-yl)methanol] as the molecule, how does the cell apoptosis [1] read?
A: The cell apoptosis was “induced apoptosis”.

Q: What about the spleen size/weight [2] of the same molecule?
A: Its spleen size/weight is “significantly reduced”.
